Where two headings read alike, the source gives them in different places.
Legend:
[1] = test system: SKOV3 ovarian cancer cells; test: Phototoxicity in SKOV3 cells after 660 nm light activation (AlamarBlue viability); type: cell-based, Human; conditions: 24 h uptake, 660 nm laser or LED 50 mW/cm^2 for 5 mins (15 J/cm^2), viability 24 h after activation
Experimental: Samples were stored at 4° C. protected from light.
All data are shown as mean±SD (where appropriate).
To test for phototoxicity, cells incubated with pyropheophorbide a analogues (0-20 μM in DMSO) had culture media replaced after 24 hours (as above) and were then exposed to a 660 nm laser (Invion) or light-emitting diode (LED) panel (Invion) with optical power density at 50 mW/cm^2 for 5 mins (total 15 J/cm^2). Laser and LED exposure induce an equivalent response in relation to phototoxicity. Following activation, cells were cultured for a further 24 hours. Media was then replaced with fresh media containing AlamarBlue, and % viable cells remaining assessed as above. Controls included cells treated with pyropheophorbide a analogues but not activated by laser light; cells without pyropheophorbide a analogue treatment but with laser light; and untreated controls. All measurements were made in quadruplicate.
To evaluate the therapeutic potential of pyropheophorbide a analogues, the therapeutic index (TI) was calculated. TI provides a quantitative measurement to describe relative drug safety, by comparing the drug concentration required for desirable effects versus the concentration resulting in undesirable off-target toxicity. TI was calculated using phototoxicity IC90 vs dark toxicity IC10.

[2] = test system: SKOV3 ovarian cancer cells
Experimental: (§1) Photosensitizers (e.g. pyropheophorbide a analogue, chlorin e4 disodium (provided by Advanced Molecular Technologies, Scoresby) or Talaporfin sodium (purchased from Focus Bioscience cat #HY-16477-5MG)) were resuspended in 100% dimethylsulfoxide (DMSO) at a concentration of 5.5 mM. Samples were stored at 4° C. protected from light.
(§2) For in vitro experiments, photosensitizers (stock solution 5.5 mM in 100% DMSO) were diluted 1:100 in concentrated excipient solution (final 55 M photosensitizer in 10% w/v Kollidon-12, 42.4% w/v polysorbate 80, 0.6% w/v citric acid anhydrous, 40% w/v ethanol, 1.0% DMSO). Serial dilutions were prepared in cell culture media (Dulbecco's Modified Eagle Medium/Nutrient Mixture F-12 (DMEM/F-12)) supplemented with 10% v/v Fetal Bovine Serum, 100 U/mL penicillin, 100 μg/mL streptomycin and the same excipient solution at a constant 1:55 dilution.
(§3) Human ovarian cancer cell line SKOV3 (ATCC #HTB-77) was maintained in Dulbecco's Modified Eagle Medium/Nutrient Mixture F-12 (DMEM/F-12), supplemented with 10% v/v Fetal Bovine Serum, 100 U/mL penicillin and 100 μg/mL streptomycin. Monolayer cultures were grown in a humidified incubator at 37° C. with 5% CO2. Once cells had reached ~80% confluence, spent media was replaced with media containing photosensitizer at the required concentration and cells were incubated for the desired period of time to allow photosensitizer uptake.
(§4) Spectral absorbance and viability measurements were normalized in the range 0-100%, with a minimum of 0 and a maximum value determined from the dataset. Dose response was determined using a sigmoidal four-point non-linear regression with variable slope, and IC10 or IC90 calculated for each compound.
(§5) SKOV3 cells were seeded in 96-well black wall plates (Greiner #655090) at a cell density of 5000 cells in 100 μl culture medium per well. On reaching ~60% confluence, media was aspirated and replaced with fresh media containing the relevant pyropheophorbide a analogue from 0-100 μM in DMSO. Cells were incubated for a further 24 hours, allowing uptake of pyropheophorbide a analogues.
(§6) To test for inherent cytotoxicity (i.e. “dark toxicity”) of the pyropheophorbide a analogues, the culture media was replaced after 24 hours with fresh media containing 10% (v/v) AlamarBlue Cell Viability Reagent (ThermoFisher) and cells incubated at 37° C. for 6 hours. Untreated cells were used as a control. Fluorescence (Ex 555 nm/Em 596 nm) was measured using a Cytation 3 Cell Imaging Multi-Mode Reader (Biotek) or a CLARIOstar Plus Microplate Readear (BMG Labtech), and cytotoxicity assessed according to the % viable cells remaining. All measurements were made in quadruplicate.
(§7) The phototoxicity and inherent cytotoxicity (i.e. “dark toxicity”) of pyropheophorbide a analogues were assessed as previously using SKOV3 ovarian cancer cells. For comparative purposes, pyropheophorbide a analogues were compared against chlorin e4 disodium and Talaporfin sodium, a clinically approved photosensitizer used in the photodynamic treatment of lung cancers. Phototoxicity IC90 values and dark toxicity IC10 values were calculated using a log[inhibitor]-vs normalized response dose curve with variable slope, using the formula Y=100/(1+(IC90/X)^HillSlope (phototoxicity IC90)) or Y=100/(1+(IC10/X)^HillSlope (dark toxicity IC10)).

[3] = test system: SKOV3 ovarian cancer cells; test: Inherent cytotoxicity (dark toxicity) in SKOV3 cells without light (AlamarBlue viability); conditions: 24 h incubation, no light activation
Experimental: as §1, §2, §3, §4, §5, §6, §7

[4] = Homo sapiens, SK-OV-3, light or radiation study

| Compound | IC90 [1] [µM] | Dark toxicity μM (IC10) [2] [µM] | IC90 [1, 4] [µM] | Dark toxicity μM (IC10) ([2]; human, 24 h) [µM] | Dark toxicity μM (IC10) [3] [µM] |
| --- | --- | --- | --- | --- | --- |
| C=Cc1c(C)c2cc3nc(c(C)c4[nH]c(cc5nc(cc1[nH]2)C(C)=C5CC)c(C)c4C(=O)O)[C@@H](CCC(=O)O)[C@@H]3C [Chlorin e4 disodium, chlorin e4 disodium, reference compound] | 21.3 | 40.23 |  |  |  |
| CCC1=C(C)c2cc3[nH]c(cc4nc(c5c6[nH]c(cc1n2)c(C)c6C(=O)C5)[C@@H](CCC(=O)OC)[C@@H]4C)c(C)c3CO [Comparative Compound 1, pyropheophorbide a 9-hydroxymethyl methyl ester, reference compound] |  |  | 0.458 | 15.500 |  |
| CCC1=C(C)c2cc3[nH]c(cc4nc(c5c6[nH]c(cc1n2)c(C)c6C(=O)C5)[C@@H](CCC(=O)OC)[C@@H]4C)c(C)c3COC(=O)NCCC[P+](c1ccccc1)(c1ccccc1)c1ccccc1 [Compound 1, pyropheophorbide a methyl ester 9-(N-(3-triphenylphosphoniumpropyl)bromide)carbamate] |  |  | 0.038 |  | 3.088 |
| CCC1=C(C)c2cc3[nH]c(cc4nc(c5c6[nH]c(cc1n2)c(C)c6C(=O)C5)[C@@H](CCC(=O)OC)[C@@H]4C)c(C)c3COC(=O)CCCC[P+](c1ccccc1)(c1ccccc1)c1ccccc1 [Compound 2, pyropheophorbide a methyl ester 9-(oxopentyl)triphenylphosphonium bromide] |  |  | 0.002 | 0.415 |  |
| CCC1=C(C)c2cc3[nH]c(cc4nc(c5c6[nH]c(cc1n2)c(C)c6C(=O)C5)[C@@H](CCC(=O)OC)[C@@H]4C)c(C)c3CN(C)C(=O)CCCC[P+](c1ccccc1)(c1ccccc1)c1ccccc1 [Compound 3, pyropheophorbide a 9-N-(methyl-5-triphenylphosphonium bromidepentanamide) methyl ester] |  |  | 0.012 | 24.00 |  |
| CCC1=C(C)c2cc3[nH]c(cc4nc(c5c6[nH]c(cc1n2)c(C)c6C(=O)C5)[C@@H](CCC(=O)OC)[C@@H]4C)c(C)c3CNCCC[P+](c1ccccc1)(c1ccccc1)c1ccccc1 [Compound 4, pyropheophorbide a 9-(N-3-triphenylphosphoniumpropyl bromide)aminomethyl methyl ester] |  |  | 0.048 |  | 50.90 |
| CCOC(=O)N(CCC[P+](c1ccccc1)(c1ccccc1)c1ccccc1)Cc1c(C)c2cc3nc(c4c5[nH]c(cc6nc(cc1[nH]2)C(C)=C6CC)c(C)c5C(=O)C4)[C@@H](CCC(=O)OC)[C@@H]3C [Compound 5, pyropheophorbide a 9-(N-3-triphenylphosphoniumpropyl bromide ethylcarbamate)aminomethyl methyl ester] |  |  | 0.006 |  | 48.97 |
| C=Cc1c(C)c2cc3nc(c(CC(=O)N[C@@H](CC(=O)O)C(=O)O)c4[nH]c(cc5nc(cc1[nH]2)C(C)=C5CC)c(C)c4C(=O)O)[C@@H](CCC(=O)O)[C@@H]3C [Talaporfin sodium] |  |  |  | 11.10 |  |
